Tested on: MOLT-4 cells
Assay: Cell proliferation activity in MOLT-4 cells (72 h, cell viability luminescence)
Assay type: cell-based, human
Details: Homo sapiens, read-out: IC50 for the inhibition of MOLT-4 cell proliferation
Description: MOLT-4 cells are acute lymphoblastic leukemia cell lines in humans. The cells were purchased from ATCC. Culture conditions: RPMI-1640+10% FBS+1% penicillin-streptomycin solution. The cells were cultured in a 37° C., 5% CO2 incubator. The cells were plated in a 96-well plate, with 5×10^3 cells/well. After plating, compounds at different concentrations were added and cultured in a 37° C., 5% CO2 incubator for 72 h. After the completion of culture, a reagent (Promega, G7573) for detecting the cell viability was added. The mixture was uniformly mixed for 2 minutes and then incubated at room temperature for 10 minutes. The luminescence signal was detected with a multimode plate reader (BMG, PHERAstar FSX). The luminescence readings were processed using GraphPad Prism 8.0 software and the IC50 values of the compounds for the inhibition of cell proliferation and the maximum inhibition rate were calculated according to formula (2) and formula (3), respectively, wherein Tadministration denotes the cell signal readings obtained after incubation with the compounds for 72 h, and Tvehicle denotes the cell signal readings obtained after incubation with the vehicle control for 72 h.
Calculation of Max inhibition %: after the processing according to formula (2), the inhibition rate of the compounds at the highest concentration was calculated.

How did the IC50 turn out when `Cc1ncsc1-c1ccc([C@H](C)NC(=O)[C@@H]2C[C@@H](O)CN2C(=O)[C@@H](NC(=O)CCCCCC(=O)N2CCN(CC[C@H](CSc3ccccc3)Nc3ccc(S(=O)(=O)NC(=O)c4ccc(N5CCN(CC6=C(c7ccc(C#N)cc7)CCC(C)(C)C6)CC5)cc4)cc3S(=O)(=O)C(F)(F)F)CC2)C(C)(C)C)cc1` [Trifluoroacetate of compound 4, (2S,4R)-1-((S)-2-(7-(4-((R)-3-((4-(N-(4-(4-((4′-cyano-4,4-dimethyl-3,4,5,6-tetrahydro-[1,1′-biphenyl]-2-yl)methyl)piperazin-1-yl)benzoyl)sulfamoyl)-2-((trifluoromethyl)sulfonyl)phenyl)amino)-4-(phenylthio)butyl)piperazin-1-yl)-7-oxoheptanamido)-3,3-dimethylbutanoyl)-4-hydroxy-N—((S)-1-(4-(4-methylthiazol-5-yl)phenyl)ethyl)pyrrolidine-2-carboxamide] was run?
Its IC50 is less than 500 nM.

With `Cc1ncsc1-c1ccc([C@H](C)NC(=O)[C@@H]2C[C@@H](O)CN2C(=O)[C@@H](NC(=O)CCCCCC(=O)N2C[C@@H]3C[C@H]2CN3CC[C@H](CSc2ccccc2)Nc2ccc(S(=O)(=O)NC(=O)c3ccc(N4CCN(CC5=C(c6ccc(Cl)cc6)CCC6(CC6)C5)CC4)cc3)cc2S(=O)(=O)C(F)(F)F)C(C)(C)C)cc1` [Compound 27, (2S,4R)-1-((S)-2-(7-((1S,4S)-5-((R)-3-((4-(N-(4-(4-((6-(4-chlorophenyl)spiro[2.5]oct-5-en-5-yl)methyl)piperazin-1-yl)benzoyl)sulfamoyl)-2-((trifluoromethyl)sulfonyl)phenyl)amino)-4-(phenylthio)butyl)-2,5-diazabicyclo[2.2.1]heptan-2-yl)-7-oxoheptanamido)-3,3-dimethylbutanoyl)-4-hydroxy-N—((S)-1-(4-(4-methylthiazol-5-yl)phenyl)ethyl)pyrrolidine-2-carboxamide] as the molecule, how does the IC50 read?
Its IC50 is less than 500 nM.

For `Cc1ncsc1-c1ccc([C@H](C)NC(=O)[C@@H]2C[C@@H](O)CN2C(=O)[C@@H](NC(=O)CCCCCC(=O)N2C[C@@H]3C[C@H]2CN3CC[C@H](CSc2ccccc2)Nc2ccc(S(=O)(=O)NC(=O)c3ccc(N4CCN(CC5=C(c6ccc(Cl)cc6F)CCCCC5)CC4)cc3)cc2S(=O)(=O)C(F)(F)F)C(C)(C)C)cc1` [Compound 37, (2S,4R)-1-((S)-2-(7-((1S,4S)-5-((R)-3-((4-(N-(4-(4-((2-(4-chloro-2-fluorophenyl)cyclohept-1-en-1-yl)methyl)piperazin-1-yl)benzoyl)sulfamoyl)-2-((trifluoromethyl)sulfonyl)phenyl)amino)-4-(phenylthio)butyl)-2,5-diazabicyclo[2.2.1]heptan-2-yl)-7-oxoheptanamido)-3,3-dimethylbutanoyl)-4-hydroxy-N—((S)-1-(4-(4-methylthiazol-5-yl)phenyl)ethyl)pyrrolidine-2-carboxamide], which IC50 is on record?
The IC50 was less than 500 nM.

`Cc1ncsc1-c1ccc([C@H](C)NC(=O)[C@@H]2C[C@@H](O)CN2C(=O)[C@@H](NC(=O)CCCCCCCC(=O)N2C[C@H]3CN(CC[C@H](CSc4ccccc4)Nc4ccc(S(=O)(=O)NC(=O)c5ccc(N6CCN(CC7=C(c8ccc(Cl)cc8)CCC(C)(C)C7)CC6)cc5)cc4S(=O)(=O)C(F)(F)F)C[C@H]3C2)C(C)(C)C)cc1` [Compound 16, cis-(2S,4R)-1-((S)-2-(9-(5-((R)-3-((4-(N-(4-(4-((4′-chloro-4,4-dimethyl-3,4,5,6-tetrahydro-[1,1′-biphenyl]-2-yl)methyl)piperazin-1-yl)benzoyl)sulfamoyl)-2-((trifluoromethyl)sulfonyl)phenyl)amino)-4-(phenylthio)butyl)hexahydropyrrolo[3,4-c]pyrrol-2(1H)-yl)-9-oxononanamido)-3,3-dimethylbutanoyl)-4-hydroxy-N—((S)-1-(4-(4-methylthiazol-5-yl)phenyl)ethyl)pyrrolidine-2-carboxamide] was tested. Which IC50 did it give?
The IC50 was less than 500 nM.

How did the IC50 turn out when `Cc1ncsc1-c1ccc([C@H](C)NC(=O)[C@@H]2C[C@@H](O)CN2C(=O)[C@@H](NC(=O)CCCCCCC(=O)N2C[C@H]3CN(CC[C@H](CSc4ccccc4)Nc4ccc(S(=O)(=O)NC(=O)c5ccc(N6CCN(CC7=C(c8ccc(Cl)cc8)CCC(C)(C)C7)CC6)cc5)cc4S(=O)(=O)C(F)(F)F)C[C@H]3C2)C(C)(C)C)cc1` [Compound 17, cis-(2S,4R)-1-((S)-2-(8-(5-((R)-3-((4-(N-(4-(4-((4′-chloro-4,4-dimethyl-3,4,5,6-tetrahydro-[1,1′-biphenyl]-2-yl)methyl)piperazin-1-yl)benzoyl)sulfamoyl)-2-((trifluoromethyl)sulfonyl)phenyl)amino)-4-(phenylthio)butyl)hexahydropyrrolo[3,4-c]pyrrol-2(1H)-yl)-8-oxooctanamido)-3,3-dimethylbutanoyl)-4-hydroxy-N—((S)-1-(4-(4-methylthiazol-5-yl)phenyl)ethyl)pyrrolidine-2-carboxamide] was run?
Its IC50 is less than 500 nM.

`Cc1ncsc1-c1ccc([C@H](C)NC(=O)[C@@H]2C[C@@H](O)CN2C(=O)[C@@H](NC(=O)CCCCCC(=O)N2C[C@H]3CN(CC[C@H](CSc4ccccc4)Nc4ccc(S(=O)(=O)NC(=O)c5ccc(N6CCN(CC7=C(c8ccc(Cl)cc8F)CCCCC7)CC6)cc5)cc4S(=O)(=O)C(F)(F)F)C[C@H]3C2)C(C)(C)C)cc1` [Compound 39, cis-(2S,4R)-1-((S)-2-(7-(5-((R)-3-((4-(N-(4-(4-((2-(4-chloro-2-fluorophenyl)cyclohept-1-en-1-yl)methyl)piperazin-1-yl)benzoyl)sulfamoyl)-2-((trifluoromethyl)sulfonyl)phenyl)amino)-4-(phenylthio)butyl)hexahydropyrrolo[3,4-c]pyrrol-2(1H)-yl)-7-oxoheptanamido)-3,3-dimethylbutanoyl)-4-hydroxy-N—((S)-1-(4-(4-methylthiazol-5-yl)phenyl)ethyl)pyrrolidine-2-carboxamide] was tested. Which IC50 did it give?
The IC50 was less than 500 nM.

For `Cc1ncsc1-c1ccc([C@H](C)NC(=O)[C@@H]2C[C@@H](O)CN2C(=O)[C@@H](NC(=O)CCCCCCC(=O)N2C[C@@H]3C[C@H]2CN3CC[C@H](CSc2ccccc2)Nc2ccc(S(=O)(=O)NC(=O)c3ccc(N4CCN(CC5=C(c6ccc(Cl)cc6)CCC6(CC6)C5)CC4)cc3)cc2S(=O)(=O)C(F)(F)F)C(C)(C)C)cc1` [Compound 28, (2S,4R)-1-((S)-2-(8-((1S,4S)-5-((R)-3-((4-(N-(4-(4-((6-(4-chlorophenyl)spiro[2.5]oct-5-en-5-yl)methyl)piperazin-1-yl)benzoyl)sulfamoyl)-2-((trifluoromethyl)sulfonyl)phenyl)amino)-4-(phenylthio)butyl)-2,5-diazabicyclo[2.2.1]heptan-2-yl)-8-oxooctanamido)-3,3-dimethylbutanoyl)-4-hydroxy-N—((S)-1-(4-(4-methylthiazol-5-yl)phenyl)ethyl)pyrrolidine-2-carboxamide], which IC50 is on record?
Its IC50 is less than 500 nM.

`Cc1ncsc1-c1ccc([C@H](C)NC(=O)[C@@H]2C[C@@H](O)CN2C(=O)[C@@H](NC(=O)CCCCCCC(=O)N2C[C@H]3CN(CC[C@H](CSc4ccccc4)Nc4ccc(S(=O)(=O)NC(=O)c5ccc(N6CCN(CC7=C(c8ccc(Cl)cc8)CCCCC7)CC6)cc5)cc4S(=O)(=O)C(F)(F)F)C[C@H]3C2)C(C)(C)C)cc1` [Compound 42, cis-(2S,4R)-1-((S)-2-(8-(5-((R)-3-((4-(N-(4-(4-((2-(4-chlorophenyl)cyclohept-1-en-1-yl)methyl)piperazin-1-yl)benzoyl)sulfamoyl)-2-((trifluoromethyl)sulfonyl)phenyl)amino)-4-(phenylthio)butyl)hexahydropyrrolo[3,4-c]pyrrol-2(1H)-yl)-8-oxooctanamido)-3,3-dimethylbutanoyl)-4-hydroxy-N—((S)-1-(4-(4-methylthiazol-5-yl)phenyl)ethyl)pyrrolidine-2-carboxamide] was tested. Which IC50 did it give?
The IC50 was less than 500 nM.

Which IC50 does the source give for `Cc1ncsc1-c1ccc([C@H](C)NC(=O)[C@@H]2C[C@@H](O)CN2C(=O)[C@@H](NC(=O)CCCCCC(=O)N2C[C@]3(C)CN(CC[C@H](CSc4ccccc4)Nc4ccc(S(=O)(=O)NC(=O)c5ccc(N6CCN(CC7=C(c8ccc(Cl)cc8)CCC(C)(C)C7)CC6)cc5)cc4S(=O)(=O)C(F)(F)F)C[C@]3(C)C2)C(C)(C)C)cc1` [Compound 26, cis-(2S,4R)-1-((S)-2-(7-(5-((R)-3-((4-(N-(4-(4-((4′-chloro-4,4-dimethyl-3,4,5,6-tetrahydro-[1,1′-biphenyl]-2-yl)methyl)piperazin-1-yl)benzoyl)sulfamoyl)-2-((trifluoromethyl)sulfonyl)phenyl)amino)-4-(phenylthio)butyl)-3a,6a-dimethylhexahydropyrrolo[3,4-c]pyrrol-2(1H)-yl)-7-oxoheptanamido)-3,3-dimethylbutanoyl)-4-hydroxy-N—((S)-1-(4-(4-methylthiazol-5-yl)phenyl)ethyl)pyrrolidine-2-carboxamide] here?
Its IC50 is less than 500 nM.

How did the IC50 turn out when `Cc1ncsc1-c1ccc([C@H](C)NC(=O)[C@@H]2C[C@@H](O)CN2C(=O)[C@@H](NC(=O)CCCCCC(=O)N2CCN(CC[C@H](CSc3ccccc3)Nc3ccc(S(=O)(=O)NC(=O)c4ccc(N5CCN(CC6=C(c7ccc(Cl)cc7)CCCCC6)CC5)cc4)cc3S(=O)(=O)C(F)(F)F)CC2)C(C)(C)C)cc1` [Trifluoroacetate of compound 6, (2S,4R)-1-((S)-2-(7-(4-((R)-3-((4-(N-(4-(4-((2-(4-chlorophenyl)cyclohept-1-en-1-yl)methyl)piperazin-1-yl)benzoyl)sulfamoyl)-2-((trifluoromethyl)sulfonyl)phenyl)amino)-4-(phenylthio)butyl)piperazin-1-yl)-7-oxoheptanamido)-3,3-dimethylbutanoyl)-4-hydroxy-N—((S)-1-(4-(4-methylthiazol-5-yl)phenyl)ethyl)pyrrolidine-2-carboxamide] was run?
Its IC50 is less than 500 nM.

Reference: patent US20240408085A1, “COMPOUND FOR DEGRADATION OF BCL-2 FAMILY PROTEINS AND MEDICAL APPLICATION THEREOF” (XIZANG HAISCO PHARMACEUTICAL CO., LTD., priority 2021, published 2024)
